Assay results: PubChem BioAssay AID1996
≈ marks a conversion by molar mass, not a printed value.

Conditions: buffer; pH 7.4; 200.0 µM

| Structure (SMILES) | solubility kinetic [µg/mL] |
| --- | --- |
| O=C(COC(=O)C1(c2ccc(Cl)cc2)CCCC1)NCc1ccco1 | 20.7 (≈ 57.2 µM) |
| Cl.Clc1cccc2c3c([nH]c12)CCNC3 | 25.8 |
| N#Cc1cccc(NC(=O)Cc2ccsc2)c1 | 33.4 (≈ 138 µM) |
| C=CCC(=O)N1CCCC(CCC(=O)NCc2ccccc2F)C1 (stereo unspecified) | > 49.9 |
| CCN(Cc1ccccc1)C(=O)COC(=O)[C@@H]1CCCN1C(=O)c1cccs1 | > 60.1 |
| CC(C)(C)OC(=O)N1CCC(CNC(=O)c2ccc(F)cc2F)CC1 | 51 (≈ 144 µM) |
| O=Nc1[nH]c(=O)c(/C=C(\O)c2ccccc2)nc1NO | 33.8 (≈ 123 µM) |
| CCc1ccccc1NC(=O)c1sc2nc(C)cc(C)c2c1N | 0.5 (≈ 1.54 µM) |
| CCCC(=O)N1CC(=O)Nc2ccc(C)cc2C1c1ccccc1 (stereo unspecified) | > 48.4 |
| Cc1ccc(-c2nc(=S)c3c(n2Cc2cccnc2)CC(C)(C)OC3)cc1 | > 56.6 |
| Cc1nc(C(F)(F)F)ccc1C(=O)Nc1ccccc1N1CCOCC1 | 50.8 (≈ 139 µM) |
| Nc1cccc2c(=O)c3ccccc3[nH]c12 | 5.6 (≈ 26.6 µM) |
| Cc1nnc(SCC(=O)Nc2ccc([N+](=O)[O-])cc2)n1C | > 46.1 |
| COC(=O)c1c(C)oc(C)c1S(=O)(=O)Nc1ccccc1 | > 46.4 |
| O=C(c1ccccc1)N1CCCN(c2nccc(C(F)(F)F)n2)CC1 | 44.8 (≈ 128 µM) |
| COC(=O)c1scc(C)c1NC(=O)c1ccccc1F | > 44 |
| CC(=O)Nc1ccc(S(=O)(=O)NCCC(=O)N2CCN(c3ccccc3Cl)CC2)cc1 | > 69.7 |
| CC(=O)NCCc1nc2cc(NC(=O)c3cccs3)ccc2n1C | > 51.4 |
| CCOn1c(=O)c(-c2ccc(Br)cc2)[n+]([O-])c2ccccc21 | 1.3 (≈ 3.6 µM) |
| CC1COc2ccccc2N1C(=O)c1ccccc1Cl (stereo unspecified) | > 43.2 |
| COc1ccc(-c2csc(NC(=O)c3ccoc3C)n2)cc1 | < 0.3 |
| COc1ccc(NC(=O)COC(=O)C23CC4CC(CC(NC(C)=O)(C4)C2)C3)cc1S(=O)(=O)N1CCOCC1 | > 82.4 |
| CN(C(=O)c1ccncc1)C1CCCN(Cc2ccccc2F)C1 (stereo unspecified) | > 49.1 |

| Structure (SMILES) | solubility kinetic [µg/mL] |
| --- | --- |
| Cc1ccccc1NC(=O)c1ccccn1 | 28.9 (≈ 136 µM) |
| CC(=O)c1cn(C2OC(CO)C3OC(C)(C)OC32)c(=O)n(C)c1=O (stereo unspecified) | 48.9 (≈ 144 µM) |
| CN(CC(=O)Nc1cccc(F)c1)CC(=O)Nc1cccc2ccccc12 | 15.4 (≈ 42.1 µM) |
| NS(=O)(=O)c1ccc(CNC(=O)c2cnccn2)cc1 | > 43.8 |
| Nc1nc2c(ccc3ccccc32)s1 | 27.4 (≈ 137 µM) |
| COc1ccc(-c2cc(C(=O)Nc3ccc(OC)c(OC)c3)no2)cc1 | < 0.4 |
| CCN(CC(=O)NC1CC1)S(=O)(=O)c1ccc(OC)cc1 | > 46.9 |
| CC1CCN(C(=O)c2ccc(N3C(=O)C4CCC(C)CC4C3=O)cc2)CC1 (stereo unspecified) | 48.4 (≈ 131 µM) |
| Fc1cccc(F)c1-c1nc(-c2ccc(Cl)cc2)no1 | < 0.3 |
| COc1ccc(OCC(=O)NCc2ccc(Cl)cc2)cc1 | 3.3 (≈ 10.8 µM) |
| CC(=O)N1C(C)(C)CC(=NOC(=O)c2ccccc2)CC1(C)C | 47.1 (≈ 149 µM) |
| Cc1ccc(NC(=O)CCc2nc3ccccc3[nH]2)cc1C | 0.3 (≈ 1.02 µM) |
| CC(=O)OCC[N+](C)(C)C.[Cl-] | > 27.2 |
| CC(C)CNS(=O)(=O)c1ccc(CCC(=O)N2CCCC2)cc1 | > 50.8 |
| COc1ccccc1C(=O)COC(=O)c1cnc(C)cn1 | > 42.9 |
| CCN(CC(=O)Nc1cc(Cl)ccc1C)C(=O)C1CC1 | > 44.2 |
| Cc1ccc(S(=O)(=O)NCC(=O)OCC(=O)NC2CCCCC2)cc1 | > 55.3 |
| CC(Oc1ccccc1)C(=O)N1CCN(c2ncccn2)CC1 (stereo unspecified) | > 46.9 |
| CC(=O)Nc1cccc(NCC(=O)Nc2cc(S(=O)(=O)N3CCCCC3)ccc2Cl)c1 | 35.8 (≈ 77 µM) |
| Cc1cc(OCC(O)CNC(C)c2ccccc2)ccc1C(C)C.Cl (stereo unspecified) | 45.3 |
| COc1ccc(CNC(=S)Nc2cccc(Cl)c2)cc1 | 3 (≈ 9.78 µM) |
| Cc1ccc(NC(=O)Nc2ccc3c(c2)CCC3)c(C)c1 | < 0.3 |
| O=C(Nc1cccc2c1CCCC2)c1ccc(F)cc1 | 2.2 (≈ 8.17 µM) |
